Reference: patent US6093732A, “4-hydroxyquinoline-3-carboxamides and hydrazides as antiviral agents” (Pharmacia & Upjohn Company, priority 1998, dated 2000)
Where a name gives a salt, the structure may show the parent alone.

The compounds below were run against T1, HCMV polymerase (Human cytomegalovirus, UniProt P08546) (assay: HCMV polymerase scintillation proximity assay (SPA), modified version). Conditions: CMV polymerase; Table 1; modified assay with 4.5 mM DTT, compounds in 100% DMSO; read-out: Antiviral Selective Polymerase IC50 Values, CMV.
T1 construct: made in house; host or cells: recombinant baculovirus-infected SF-9 cells
T1 sequence (P08546 whole entry): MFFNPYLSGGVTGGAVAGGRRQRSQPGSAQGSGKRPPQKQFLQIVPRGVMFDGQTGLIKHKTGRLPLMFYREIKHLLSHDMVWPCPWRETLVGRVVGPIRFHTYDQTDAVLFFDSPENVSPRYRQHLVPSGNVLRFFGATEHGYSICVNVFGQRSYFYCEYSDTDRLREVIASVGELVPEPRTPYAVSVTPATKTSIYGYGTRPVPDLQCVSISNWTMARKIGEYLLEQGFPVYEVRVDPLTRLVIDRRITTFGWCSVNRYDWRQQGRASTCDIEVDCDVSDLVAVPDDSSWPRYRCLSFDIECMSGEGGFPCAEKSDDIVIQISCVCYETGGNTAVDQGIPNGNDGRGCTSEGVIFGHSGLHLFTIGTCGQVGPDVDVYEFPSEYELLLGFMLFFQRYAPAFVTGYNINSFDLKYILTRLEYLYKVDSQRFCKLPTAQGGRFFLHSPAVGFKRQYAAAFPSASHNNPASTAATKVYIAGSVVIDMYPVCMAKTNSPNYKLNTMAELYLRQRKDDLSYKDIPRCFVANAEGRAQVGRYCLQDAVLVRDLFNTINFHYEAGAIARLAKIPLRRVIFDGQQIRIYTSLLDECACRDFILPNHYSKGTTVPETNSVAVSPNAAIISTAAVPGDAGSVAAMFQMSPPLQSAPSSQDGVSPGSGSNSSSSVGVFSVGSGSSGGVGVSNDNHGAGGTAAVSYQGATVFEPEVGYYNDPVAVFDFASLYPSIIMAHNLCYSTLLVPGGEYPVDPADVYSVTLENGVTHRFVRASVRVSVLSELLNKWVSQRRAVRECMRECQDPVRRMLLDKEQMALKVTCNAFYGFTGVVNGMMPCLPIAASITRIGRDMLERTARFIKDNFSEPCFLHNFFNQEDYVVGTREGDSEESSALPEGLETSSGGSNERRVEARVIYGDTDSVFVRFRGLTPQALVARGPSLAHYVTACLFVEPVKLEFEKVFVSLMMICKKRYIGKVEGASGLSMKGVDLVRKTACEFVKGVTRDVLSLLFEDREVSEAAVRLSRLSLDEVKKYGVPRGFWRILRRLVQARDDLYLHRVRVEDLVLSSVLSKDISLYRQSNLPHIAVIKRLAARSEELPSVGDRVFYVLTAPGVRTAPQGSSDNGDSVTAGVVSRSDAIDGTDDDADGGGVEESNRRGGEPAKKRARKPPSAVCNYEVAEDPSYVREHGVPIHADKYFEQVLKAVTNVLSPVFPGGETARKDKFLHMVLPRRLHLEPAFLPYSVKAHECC
Type: biochemical
Procedure, shortened: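 SPA measuring 3H-dTTP (90 nM) incorporation on 6 nM biotinylated poly(dA)-oligo(dT) by SF-9-expressed enzyme, pH 7.5 HEPES/KCl/MgCl2/BSA buffer with or without 2 mM CHAPS. Run at 25° C or 37° C, stopped with EDTA while linear (HCMV 30 min); IC50 from linear regression. Modified format adds 4.5 mM DTT, compounds diluted in 100% DMSO.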

Q: For `NCCSc1cc(F)c2ncc(C(=O)NCc3ccc(Cl)cc3)c(O)c2c1` [Example 172, 6-[(2-Aminoethyl)sulfanyl]-N-(4-chlorobenzyl)-8-fluoro-4-hydroxy-3-quinolinecarboxamide, hydrobromide], which IC50 is on record?
A: 35.1 µM

Q: How did the IC50 turn out when `O=C(NCc1ccc(Cl)cc1)c1cnc2c(F)cc(S(=O)(=O)NCc3ccccn3)cc2c1O` [Example 216, N-(4-chlorobenzyl)-8-fluoro-4-hydroxy-6-{[(2-pyridinylmethyl)amino]sulfonyl}-3-quinolinecarboxamide] was run?
A: 18.7 µM

Q: Which IC50 does the source give for `COCCCc1cc(F)c2ncc(C(=O)NCc3ccc(Cl)cc3)c(O)c2c1` [Example 103, N-(4-Chlorobenzyl)-8-fluoro-4-hydroxy-6-(3-methoxypropyl)-3-quinolinecarboxamide] here?
A: 2.5 µM

Q: `Cc1c(N)ccc2c(O)c(C(=O)NCc3ccc(Cl)cc3)cnc12` [Example 50, 7-Amino-N-[(4-chlorophenyl)methyl]-4-hydroxy-8-methyl-3-quinolinecarboxamid] was tested. Which IC50 did it give?
A: 6.9 µM

Q: How did the IC50 turn out when `O=C(NCc1ccc(Cl)cc1)c1cnc2c(F)cc(S(=O)(=O)NCCN(CCO)CCO)cc2c1O` [Example 250, 6-[({2-[bis(2-hydroxyethyl)amino]ethyl}amino)sulfonyl]-N-(4-chlorobenzyl)-8-fluoro-4-hydroxy-3-quinolinecarboxamide] was run?
A: 45.2 µM

Q: For `O=C(NCc1ccc(Cl)cc1)c1cnc2c(F)cc(C#CCF)cc2c1O` [Example 143, N-(4-Chlorobenzyl)-8-fluoro-6-(3-fluoro-1-propynyl)-4-hydroxy-3-quinolinecarboxamide], which IC50 is on record?
A: 3 µM

Q: `O=C(NCc1ccc(Cl)cc1)c1cnc2c(F)cc(S(=O)(=O)NCCc3ccc(O)c(O)c3)cc2c1O` [Example 246, N-(4-chlorobenzyl)-6-{[(3,4-dihydroxyphenethyl)amino]-sulfonyl}-8-fluoro-4-hydroxy-3-quinolinecarboxamide] was tested. Which IC50 did it give?
A: 8.6 µM

Q: Which IC50 does the source give for `O=C(O)CCC#Cc1cc(F)c2ncc(C(=O)NCc3ccc(Cl)cc3)c(O)c2c1` [Example 115, 5-(3-{[(4-Chlorobenzyl)amino]carbonyl}-8-fluoro-4-hydroxy-6-quinolinyl)-4-pentynoic acid] here?
A: 6.1 µM

Q: `O=C(NCc1ccc(Cl)cc1)c1cnc2c(Cl)ccc(C(F)(F)F)c2c1O` [Example 59, 8-Chloro-N-((4-chlorophenyl)methyl)-4-hydroxy-5-trifluoro-methyl-3-quinolinecarboxamide] was tested. Which IC50 did it give?
A: 33.1 µM

Q: `O=C(NCc1ccc(Cl)cc1)c1cnc2cc(C(F)(F)F)cc(C(F)(F)F)c2c1O` [Example 8, N-[(4-Chlorophenyl)methyl]-4-hydroxy-5,7-bis(trifluoromethyl)-3-quinolinecarboxamide] was tested. Which IC50 did it give?
A: 55.3 µM

Q: How did the IC50 turn out when `O=C(NCc1ccc(Cl)cc1)c1cnc2c(Cl)c(Cl)ccc2c1O` [Example 43, 7,8-Dichloro-N-[(4-chlorophenyl)methyl]-4-hydroxy-3-quinolinecarboxamide] was run?
A: 1.3 µM

Q: With `Cc1ccc2ncc(C(=O)NCc3ccc(Cl)cc3)c(O)c2c1` [Example 22, N-[(4-Chlorophenyl)methyl]-4-hydroxy-6-methyl-3-quinoline-carboxamide] as the compound, how does the IC50 read?
A: 4 µM

Q: `O=C(NCc1ccc(Cl)cc1)c1cnc2c(F)cc(CCCOP(=O)(O)O)cc2c1O` [Example 268, 3-(3-{[(4-Chlorobenzyl)amino]carbonyl}-8-fluoro-4-hydroxy-6-quinolinyl)propyl dihydrogen phosphate] was tested. Which IC50 did it give?
A: 9.5 µM

Q: How did the IC50 turn out when `O=C(NCc1ccc(Cl)cc1)c1cnc2c(F)cc(S(=O)(=O)NCc3ccc(Cl)cc3F)cc2c1O` [Example 262, N-(4-chlorobenzyl)-6-{[(4-chloro-2-fluorobenzyl)amino]sulfonyl}-8-fluoro-4-hydroxy-3-quinolinecarboxamide] was run?
A: 9.9 µM

Q: With `COCCOc1c(F)cc2c(O)c(C(=O)NCc3ccc(Cl)cc3)cnc2c1OCCOC` [Example 85, N-((4-Chlorophenyl)methyl)-6-fluoro-7,8-di(2-(methoxy)ethoxy)-4-hydroxy-3-quinolinecarboxamide] as the compound, how does the IC50 read?
A: 18.1 µM

Q: Which IC50 does the source give for `O=C(NCc1ccc(Cl)cc1)c1cnc2cc(CCCO)ccc2c1O` [Example 111, N-(4-Chlorobenzyl)-4-hydroxy-7-(3-hydroxypropyl)-3-quinoline-carboxamide] here?
A: 2.6 µM

Q: `CSc1cc(F)c2ncc(C(=O)NCc3ccc(Cl)cc3)c(O)c2c1` [Example 170, N-(4-Chlorobenzyl)-8-fluoro-4-hydroxy-6-(methylsulfanyl)-3-quinolinecarboxamide] was tested. Which IC50 did it give?
A: 4.4 µM

Q: `COCCNc1c(F)cc2c(O)c(C(=O)NCc3ccc(Cl)cc3)cnc2c1F` [Example 88, N-(4-Chlorobenzyl)-6,8-difluoro-4-hydroxy-7-[(2-methoxyethyl)amino]-3-quinolinecarboxamide] was tested. Which IC50 did it give?
A: 30.3 µM

Q: `CC(C)(C)OC(=O)CNS(=O)(=O)c1cc(F)c2ncc(C(=O)NCc3ccc(Cl)cc3)c(O)c2c1` [Example 257, tert-butyl 2-{[(3-{[(4-chlorobenzyl)amino]carbonyl}-8-fluoro-4-hydroxy-6-quinolinyl)sulfonyl]amino}acetate] was tested. Which IC50 did it give?
A: 16.3 µM

Q: Which IC50 does the source give for `O=C(NCc1ccc(Cl)cc1)c1cnc2c(F)cc(S(=O)(=O)NCc3cccc(OC(F)(F)F)c3)cc2c1O` [Example 259, N-(4-chlorobenzyl)-8-fluoro-4-hydroxy-6-({[3-(trifluoro-methoxy)benzyl]amino}sulfonyl)-3-quinolinecarboxamide] here?
A: 6.1 µM

Q: `Cc1ccc2c(O)c(C(=O)NCc3ccc(Cl)cc3)cnc2c1` [Example 11, N-[(4-Chlorophenyl)methyl]-4-hydroxy-7-methyl-3-quinoline-carboxamide] was tested. Which IC50 did it give?
A: 21.2 µM

Q: With `O=C(NCc1ccc(Cl)cc1)c1cnc2c(F)cc(S(=O)(=O)NCc3ccc(Cl)cc3)cc2c1O` [Example 220, N-(4-chlorobenzyl)-6-{[(4-chlorobenzyl)amino]sulfonyl}-8-fluoro-4-hydroxy-3-quinolinecarboxamide] as the compound, how does the IC50 read?
A: 10.7 µM

Q: For `O=C(NCc1ccc(Cl)cc1)c1cnc2c(F)cc(CCCCCO)cc2c1O` [Example 154, N-(4-Chlorobenzyl)-8-fluoro-4-hydroxy-6-(5-hydroxypentyl)-3-quinolinecarboxamide], which IC50 is on record?
A: 3.4 µM

Q: How did the IC50 turn out when `CSc1cccc2c(=O)c(C(=O)NCc3ccc(Cl)cc3)c[nH]c12` [Example 65, N-[(4-Chlorophenyl)methyl]-1,4-dihydro-8-(methylthio)-4-oxo-3-quinolinecarboxamide] was run?
A: 3.3 µM

Q: For `COc1ccc2[nH]cc(CCNS(=O)(=O)c3cc(F)c4ncc(C(=O)NCc5ccc(Cl)cc5)c(O)c4c3)c2c1` [Example 211, N-(4-chlorobenzyl)-8-fluoro-4-hydroxy-6-({[2-(5-methoxy-1H-indol-3-yl)ethyl]amino}sulfonyl)-3-quinolinecarboxamide], which IC50 is on record?
A: 5.1 µM

Q: `O=C(NCc1ccc(Cl)cc1)c1cnc2c(F)cc(S(=O)(=O)NCCOCCO)cc2c1O` [Example 228, N-(4-chlorobenzyl)-8-fluoro-4-hydroxy-6-({[2-(2-hydroxyethoxy)ethyl]amino}sulfonyl)-3-quinolinecarboxamide] was tested. Which IC50 did it give?
A: 44.3 µM

Q: `O=C(NCc1ccc(Cl)cc1)c1cnc2ccc(CO)cc2c1O` [Example 166, N-(4-Chlorobenzyl)-4-hydroxy-6-(hydroxymethyl)-3-quinolinecarboxamide] was tested. Which IC50 did it give?
A: 7 µM

Q: For `O=C(NCc1ccc(Cl)cc1)c1cnc2c(F)cc(S(=O)(=O)NCCN3CCCC3)cc2c1O` [Example 203, N-(4-chlorobenzyl)-8-fluoro-4-hydroxy-6-({[2-(1-pyrrolidinyl)ethyl]amino}sulfonyl)-3-quinolinecarboxamide], which IC50 is on record?
A: 38.8 µM
